# Measurements reported in patent US6492328B2, “Novispirins: antimicrobial peptides” (priority 2000, dated 2002).
# Where two headings read alike, the source gives them in different places. Where no end group is shown, it is not given here.
# Assays:
# [1] = test system: E. coli ML 35P
# From the text: (§1) Effect of serum. […] Because serum can be present in an inflammatory focus or exudate, the ability to function in the presence of serum would be a desirable property.
# (§2) In these experiments, the underlay gel contained 60% RPMI-1640, ±2.5 or 20% normal human serum (NHS). The remainder of the solution was phosphate-buffered saline
# [2] = test system: P. aeruginosa MR 3007; details: underlay gel 60% RPMI-1640
# From the text: as §1, §2
# [3] = test system: E. coli ML 35P; assay type: cell-based, Escherichia coli; details: mean ± SEM, n = 3
# Procedure: Antimicrobial activity. Several different methods were used to examine the antimicrobial properties of novispirins, including: a) two-stage radial diffusion assays; b) colony counting assays; and c) standard microbroth dilution assays.
# Antimicrobial activity was tested in media with low, normal or high salinity. In radial diffusion assays, this was accomplished by using a low salt “basic medium” containing 0.3 mg of trypticase soy broth powder/ml of 10 mM sodium phosphate buffer, pH 7.4. Media with “normal” or “high” salinity were prepared by supplementing the basic medium with 100 mM NaCl to obtain media with normal salinity, or with 175-200 mM NaCl to obtain high salt media. Retention of activity against P. aeruginosa in high salt media is important because airway fluids from cystic fibrosis patients are reported to show hypersalinity, and other sites—including skin surfaces surfaces and the urinary bladder—may have locally high salt concentrations.
# The relative activities of ovispirin and the novispirins against two organisms, E. coli and a multi-resistant strain of P. aeruginosa, are shown in FIG. 1. The MICs were obtained by radial diffusion assays performed under low, normal, and high salt conditions (which are denoted along the X-axis as 0, 100 and 200 mM NaCl, respectively).
# Table 1 compares the activity of novispirins against these Gram-negative bacteria with its activity against Listeria monocytogenes, Staphylococcus aureus and C. albicans. […] Note that novispirins show activity against these Gram-positive bacteria when tested in physiological (100 mM NaCl) salt concentrations, and also that Novispirin G10 is quite active against C. albicans. Although neither ovispirin nor novispirins retained activity against C. albicans or the Gram positives under very high salt conditions (200 mM NaCl), they remained active against the Gram-negatives under these conditions. Consequently, even if the airways' NaCl concentrations are exceptionally high in CF patients, this factor will not impair the ability of ovispirin or novispirins to kill P. aeruginosa.
# [4] = test system: S. maltophilia 18CP; experiment: Novispirins vs S. maltophilia (Table 5); assay type: cell-based, Stenotrophomonas maltophilia; set-up: unit not given here; details: strain 18CP
# Procedure: (§3) Microorganisms used in this study included 13 different Pseudomonas aeruginosa strains. The AML-654 and LZ-1 strains are recent clinical isolates from the UCLA Clinical Microbiology laboratory. Nine strains (5 mucoid, 4 nonmucoid) were recent CF isolates provided by Dr. Lisa Saiman. All of the P. aeruginosa strains except PAO-1 strain were resistant to multiple conventional antibiotics, and all 9 CF isolates were resistant to 250 μg/ml of tobramycin. We have also tested 5 strains each of Stenotrophomonas maltophilia and Burkholderia cepacia from CF patients (also provided by Dr. Lisa Saiman), two strains of Escherichia coli (ML-35p and DH-5a), and single strains of Staphylococcus aureus[MRSA (methicillin-resistant S. aureus)] and C. albicans.
# [5] = test system: S. maltophilia 36CN; experiment: Novispirins vs S. maltophilia (Table 5); assay type: cell-based, Stenotrophomonas maltophilia; set-up: unit not given here; details: strain 36CN
# Procedure: as §3
# [6] = test system: S. maltophilia 42CK; experiment: Novispirins vs S. maltophilia (Table 5); assay type: cell-based, Stenotrophomonas maltophilia; set-up: unit not given here; details: strain 42CK
# Procedure: as §3
# [7] = test system: S. maltophilia 47CG; experiment: Novispirins vs S. maltophilia (Table 5); assay type: cell-based, Stenotrophomonas maltophilia; set-up: unit not given here; details: strain 47CG
# Procedure: as §3
# [8] = test system: S. maltophilia 51Cl; experiment: Novispirins vs S. maltophilia (Table 5); assay type: cell-based, Stenotrophomonas maltophilia; set-up: unit not given here; details: strain 51Cl
# Procedure: as §3
# [9] = test system: E. coli; experiment: Two stage radial diffusion assay with 10 mM HEPES, G10 variants (Table 8); assay type: cell-based; details: mean ± SEM, n = 3, in µg/mL
# From the text: (§4) Amidation (—NH2) of the carboxy terminus in some of the novispirin G10 variants was designed to increase overall positive charge. The sequences of these peptides and their net charge is shown below in Table 7. The fractional (and pH dependent) charge on histidine12 was ignored in this calculation.
# (§5) In Table 8, MIC signifies minimal inhibitory concentration, as determined by two stage radial diffusion assays. […] Shaded boxes show results that represent a significant improvement of activity (p<0.01 by t-test), relative to novispirin G10. […] None of the above G10 novispirin derivatives caused any hemolysis of human red blood cells, even when tested at 80 μg/ml. It is likely that other cationic amino acids (e.g., lysine, ornithine, etc) could also be used in position 12 to achieve better activity in the presence of calcium and magnesium ions.
# [10] = test system: K. pneumoniae; experiment: as above; assay type: cell-based; details: mean ± SEM, n = 3, in µg/mL
# From the text: as §4, §5
# [11] = test system: P. aeruginosa; experiment: as above; assay type: cell-based; details: mean ± SEM, n = 3, in µg/mL
# From the text: as §4, §5
# [12] = test system: S. aureus; experiment: as above; assay type: cell-based; details: mean ± SEM, n = 3, in µg/mL
# From the text: as §4, §5
# [13] = test system: human red blood cells; assay type: cell-based
# Procedure: Hemolytic Activity: This was tested by incubating various concentrations of peptide with a suspension (2.8% v/v) of washed human, murine, sheep or bovine red cells in PBS. After 30 min at 37C, the tubes were centrifuged and the percentage of total hemoglobin released to the supernatant was measured.
# Similar results were obtained with murine red blood cells. In contrast, none of these peptides were appreciably hemolytic towards sheep or bovine red blood cells.
# [14] = test system: MRC-5 human lung fibroblasts; assay type: cell-based
# From the text: FIG. 5 compares the cytotoxicity of these peptides for MRC-5 human lung fibroblasts.
# [15] = Acute toxicity studies in mice, intravenous; assay type: in vivo
# Procedure: In vivo toxicity. Acute toxicity studies were performed in mice. 3/3 mice survived an intravenous dose of 10 mg novispirin G10/kg body weight, and 1/3 survived a dose of 20 mg/kg.
# [16] = test system: C. trachomatis serovar E; experiment: McCoy cell shell vial assay, inclusion-forming units; assay type: cell-based, Chlamydia trachomatis; details: 100 μg/ml, pre-incubation assays
# Procedure: (§6) C. trachomatis serovar L2 causes invasive LGV, whereas serovars D and E represent typical genital strains. The effect of G-10 on Chlamydia trachomatis serovars (L2, D and E) was determined using standard and modified McCoy cell shell vial assays and varying concentrations of peptide. In the standard assay, the Chlamydia/peptide mixture was pre-incubated for 2 hr., then removed from the host cell monolayer before the 48-hr. incubation. In the modified assay, the pre-incubation mixture was left on the monolayer for the 48 hr. incubation. In a third assay, G-10 and Chlamydia were mixed and infected to cell monolayers without pre-incubation, and examined after 48 hr. Inclusion-forming units (IFUs) were scored to measure the peptide's inhibitory effect.
# [17] = test system: C. trachomatis serovar D; experiment: as above; assay type: cell-based, Chlamydia trachomatis; set-up: dose or concentration left out as unconfirmed
# Procedure: as §6
# [18] = test system: C. trachomatis serovar L2; experiment: as above; assay type: cell-based, Chlamydia trachomatis; set-up: dose or concentration left out as unconfirmed
# Procedure: as §6
# [19] = Very high salinity (+200 mM NaCl)
compound,measurement,setting,value
"CC[C@H](C)[C@H](NC(=O)[C@H](CCCCN)NC(=O)[C@H](CCC(=O)O)NC(=O)[C@H](CCCCN)NC(=O)[C@H](CO)NC(=O)[C@H](CCCCN)NC(=O)[C@H](CCCNC(=N)N)NC(=O)[C@H](Cc1ccccc1)NC(=O)[C@H](Cc1ccccc1)NC(=O)[C@H](CC(=O)O)NC(=O)CNC(=O)[C@H](CC(C)C)NC(=O)[C@@H](N)CC(C)C)C(=O)NCC(=O)N[C@@H](CCCCN)C(=O)N[C@@H](CCC(=O)O)C(=O)N[C@@H](Cc1ccccc1)C(=O)N[C@@H](CCCCN)C(=O)N[C@@H](CCCNC(=N)N)C(=O)N[C@H](C(=O)N[C@H](C(=O)N[C@@H](CCC(N)=O)C(=O)N[C@@H](CCCNC(=N)N)C(=O)N[C@H](C(=O)N[C@@H](CCCCN)C(=O)N[C@@H](CC(=O)O)C(=O)N[C@@H](Cc1ccccc1)C(=O)N[C@@H](CC(C)C)C(=O)N[C@@H](CCCNC(=N)N)C(=O)N[C@@H](CC(N)=O)C(=O)N[C@@H](CC(C)C)C(=O)N[C@H](C(=O)N1CCC[C@H]1C(=O)N[C@@H](CCCNC(=N)N)C(=O)N[C@H](C(=O)N[C@@H](CCC(=O)O)C(=O)N[C@@H](CO)C(=O)O)[C@@H](C)O)C(C)C)[C@@H](C)CC)C(C)C)[C@@H](C)CC [LL-37, reference compound]",MIC,"[1]; 0% NHS, underlay gel 60% RPMI-1640",5.8 µg/mL
same,MIC,"[1]; 2.5% NHS, underlay gel 60% RPMI-1640",21.0 µg/mL
same,MIC,[2]; 0% NHS,12.7 µg/mL
same,MIC,[2]; 2.5% NHS,23.7 µg/mL
same,MIC,[2]; 20% NHS,141 µg/mL
"KNLRRIIRKGIHIIKKYG-OH [G10 Novispirin, K N L R R I I R K G I H I I K K Y G]",MIC,[3]; Low Salt (+0 mM NaCl),0.1 ± 0.0 µg/mL
same,MIC,[3]; Normal salinity (+100 mM NaCl),0.1 ± 0.0 µg/mL
same,MIC,[3]; [19],1.8 ± 0.8 µg/mL
same,activity vs S. maltophilia,[4]; +100 mM NaCl,0.70
same,activity vs S. maltophilia,[4]; +175 mM NaCl,1.30
same,activity vs S. maltophilia,[4]; LOW SALT CONDITIONS,0.40
same,activity vs S. maltophilia,[5]; +100 mM NaCl,0.29
same,activity vs S. maltophilia,[5]; +175 mM NaCl,0.36
same,activity vs S. maltophilia,[5]; LOW SALT CONDITIONS,0.15
same,activity vs S. maltophilia,[6]; +100 mM NaCl,0.67
same,activity vs S. maltophilia,[6]; +175 mM NaCl,10.0
same,activity vs S. maltophilia,[6]; LOW SALT CONDITIONS,0.43
same,activity vs S. maltophilia,[7]; +100 mM NaCl,0.68
same,activity vs S. maltophilia,[7]; +175 mM NaCl,0.63
same,activity vs S. maltophilia,[7]; LOW SALT CONDITIONS,0.08
same,activity vs S. maltophilia,[8]; +100 mM NaCl,3.57
same,activity vs S. maltophilia,[8]; +175 mM NaCl,8.18
same,activity vs S. maltophilia,[8]; LOW SALT CONDITIONS,0.45
same,MIC,[9]; +1 mM Ca,21.2 ± 0.36
same,MIC,[9]; +1 mM Mg,20.3 ± 0.1
same,MIC,[9]; No Ca/Mg,0.09 ± 0.02
same,MIC,[10]; +1 mM Ca,>250
same,MIC,[10]; +1 mM Mg,>250
same,MIC,[10]; No Ca/Mg,0.17 ± 0.03
same,MIC,[11]; +1 mM Ca,>250
same,MIC,[11]; +1 mM Mg,>250
same,MIC,[11]; No Ca/Mg,0.17 ± 0.04
same,MIC,[12]; +1 mM Ca,99.0 ± 5.7
same,MIC,[12]; +1 mM Mg,>79
same,MIC,[12]; No Ca/Mg,22.7 ± 2.1
same,hemolytic activity for human red blood cells,[13],nonhemolytic
same,cytotoxicity for MRC-5 human lung fibroblasts,[14],virtually devoid of cytotoxicity
same,peak level,"[15]; 10 mg/kg dose, if blood volume of a mouse is 5% of its mass",approximately 200 micrograms/ml
same,mice survived,[15]; intravenous dose of 10 mg/kg body weight,3/3
same,mice survived,[15]; intravenous dose of 20 mg/kg,1/3
same,inhibition of C. trachomatis serovar E,[16],completely inhibited
same,serovar D IFUs reduced,[17],99.4-100%
same,serovar L2 IFUs reduced,[18],92.7-99.1%
"KNLRRIIRKIIHIIKKYG [Ovispirin, K N L R R I I R K I I H I I K K Y G]",MIC,[3]; Low Salt (+0 mM NaCl),0.7 ± 0.0 µg/mL
same,MIC,[3]; Normal salinity (+100 mM NaCl),0.7 ± 0.1 µg/mL
same,MIC,[3]; [19],1.5 ± 0.6 µg/mL
same,MIC,[1]; ML 35P,1.7 µg/mL
same,hemolytic activity for human red blood cells,[13],about as hemolytic for human red blood cells as protegrin PG-1
"KNLRRIIRKTIHIIKKYG [T10 Novispirin, K N L R R I I R K T I H I I K K Y G]",MIC,[3]; Low Salt (+0 mM NaCl),0.5 ± 0.2 µg/mL
same,MIC,[3]; Normal salinity (+100 mM NaCl),0.3 ± 0.2 µg/mL
same,MIC,[3]; [19],2.7 ± 1.1 µg/mL
same,cytotoxicity for MRC-5 human lung fibroblasts,[14],virtually devoid of cytotoxicity
